Calls of active or inactive are those of the source. The rule behind the calls is not given here.

For orientation: LD50 means the dose expected to kill half of the subjects tested. The T/C is the result in the treated group divided by that in the control group, in per cent.

The subject of series [1] is W256. The series can be described thus: Antitumor activity against rat Walker 256 cells allografted in Sprague-Dawley rat assessed as animal survival days at 2.5 mg/kg/day, ip. The following applies: route intraperitoneal. The format is functional.
The subject of series [2] is Ehrlich. The series can be described thus: Antineoplastic activity against mouse EAC allografted in CF1 mouse assessed as animal survival on day 7 measured at 33 mg/kg. The format is functional, organism-based. Also on record: dose 33 mg/kg.
Series [3] deals with Ehrlich. The series can be described thus: Antineoplastic activity against mouse EAC allografted in CF1 mouse assessed as packed cell volume on day 7 measured at 33 mg/kg (reference value: 32.75 +/- 7.87%). The class given is functional.
Series [4] has as its system Ehrlich. The series can be described thus: Antineoplastic activity against mouse EAC allografted in CF1 mouse assessed as ascites volume on day 7 measured at 33 mg/kg (reference value: 4.1 +/- 1.24 mL). The format is functional.
The test system of series [5] is Ehrlich. The series can be described thus: Antineoplastic activity against mouse EAC allografted in CF1 mouse assessed as tumor growth inhibition on day 7 measured at 33 mg/kg. The format is functional. Conditions: 168 h, read-out: TGI.
A short description of series [6]: Acute toxicity in CF1 mouse. The class given is organism-based. The following applies: in vivo.
In series [7] the test system is W256. The series can be described thus: Antitumor activity against rat Walker 256 cells allografted in Sprague-Dawley rat assessed as survival time (treated/control) at 2.5 mg/kg/day, ip. The format is functional. Conditions: route intraperitoneal.
For series [8], the system named is P388. Put plainly: Antitumor activity against mouse P388 cells allografted in DBA/2 mouse assessed as animal survival days at 20 mg/kg/day, ip. The class given is functional. Conditions: route intraperitoneal.
The subject of series [9] is P388. Put plainly: Antitumor activity against mouse P388 cells allografted in DBA/2 mouse assessed as median survival time of treated versus control mice (T/C) at 20 mg/kg/day, ip. Conditions: route intraperitoneal. The format is functional.

With `O=C(CNC(=O)OCc1ccccc1)OC(Br)CBr` (configuration not stated), the Survival with W256 [1] worked out at 10.1 days; in the series with P388 [8], 2.2 days. Also, the result with Ehrlich [2] was Active. The Activity turned out to be 0% with Ehrlich [3] and 0 mL in the series with Ehrlich [4]. Further, in the series on Ehrlich [5], the inhibition in vivo at 33 mg/kg was 100%. The same molecule yielded an LD50 in [6] of 370 µmol/kg. Moreover, the T/C was 135% in the series with W256 [7] and 28% in the series on P388 [9].

Consider `CC(C)C[C@H](NC(=O)OCc1ccccc1)C(=O)OC(Br)CBr` (some centres not stated), for which the Survival with W256 [1] stood at 8.5 days; with P388 [8], 9.1 days. For the same molecule, in the series on Ehrlich [2], the result was Active. The figures for the Activity in the series with Ehrlich [3] and in the series on Ehrlich [4] were 14% and 0.002 mL, respectively. The inhibition in vivo at 33 mg/kg in the series on Ehrlich [5] came to 99%. This molecule gave an LD50 in series [6] of 500 µmol/kg. The T/C with W256 [7] was 113%; in the series with P388 [9] it was 112%.

In the case of `O=C(CCCNC(=O)OCc1ccccc1)OC(Br)CBr` (configuration not stated), the figures for the Survival in the series on W256 [1] and in the series on P388 [8] were 18.1 days and 8.1 days, respectively. Besides, the Activity in the series on Ehrlich [3] is 2%; in the series with Ehrlich [4] it was 0.6 mL. In addition, the inhibition in vivo at 33 mg/kg in the series on Ehrlich [5] is 98.7%. In addition, the figures for the T/C in the series on W256 [7] and in the series on P388 [9] were 226% and 100%, respectively.

On to `C#CCOC(=O)CCCNC(=O)OCc1ccccc1`, for which the Survival with W256 [1] came to 23 days; with P388 [8], 6.7 days. Further, the result with Ehrlich [2] was Active. In addition, the Activity with Ehrlich [3] came out at 34.5%; in the series with Ehrlich [4] it was 2.3 mL. The inhibition in vivo at 33 mg/kg with Ehrlich [5] came to 20%. Moreover, the T/C amounted to 305% with W256 [7] and 83% in the series on P388 [9].

For the molecule `C#CCOC(=O)[C@H](CC(C)C)NC(=O)OCc1ccccc1`, the outcome in the series on Ehrlich [2] was Active. In addition, the Activity was found to be 23% in the series on Ehrlich [3] and 0.5 mL in the series on Ehrlich [4]. The inhibition in vivo at 33 mg/kg with Ehrlich [5] amounted to 85%. This molecule gave an LD50 in series [6] of 1650 µmol/kg. Besides, the Survival with P388 [8] came to 9.1 days. In addition, in the series on P388 [9], the T/C turned out to be 112%.

As to `C=COC(=O)[C@H](Cc1c[nH]c2ccccc12)NC(=O)OCc1ccccc1`, the Survival in the series with W256 [1] is 8 days. For the same molecule, in the series with Ehrlich [2], the result was Active. Besides, the Activity worked out at 14.3% in the series with Ehrlich [3] and 1.3 mL in the series with Ehrlich [4]. Further, the inhibition in vivo at 33 mg/kg in the series on Ehrlich [5] turned out to be 87%. Also, the T/C with W256 [7] was determined as 106%.

Turning to `N[C@@H](Cc1ccc(N(CCCl)CCCl)cc1)C(=O)O`, the Survival in the series on W256 [1] amounted to 23 days. Besides, the outcome in the series on Ehrlich [2] was Active. For the same molecule, the Activity in the series on Ehrlich [3] was 3%; with Ehrlich [4] it was 0.1 mL. Also, the inhibition in vivo at 33 mg/kg in the series with Ehrlich [5] turned out to be 99%. Further, the T/C with W256 [7] came to 305%.

These data come from ChEMBL document CHEMBL3271995, “Antineoplastic agents. 2. Structure-activity studies on N-protected vinyl, 1,2-dibromoethyl, and cyanomethyl esters of several amino acids” (J Med Chem, 1977).
